Tests used:
[1] = tested on: PC-3M-luc cells; assay: Orthotopic prostate tumor mouse xenograft model; conditions: single drug
Experimental: Immunodeficeint male mice (athymic nude mice) were acclimated to the laboratory for at least one week prior to implantation of tumor. PC-3M-luc cells obtained directly from in vitro culture were then injected into the prostate on Day 0. Animals were divided into six groups of 12 mice each. Primary tumor size and metastases were assessed by bioluminescence measurements on day 6, 13, 20, 27, 34, and 40. On day 7 a five week treatment regime was initiated. Both individual drug and high and low dose combination were examined by administering the drugs twice daily on an individual body weight basis using a dose escalation protocol (Table 7). If tumors grew above a pre-determined level, or mice lost more than 10% of bodyweight, they were culled. The primary tumor was excised, weighed and measured. Individual organs were imaged to assess metastatic burden.

[2] = tested on: PC3 cells; assay: Cell growth inhibition, lysed cell LDH assay, prostate cancer cell line; assay type: cell-based;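 further: 100% is cells receiving no drug treatment and 0% is wells without cells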
Experimental: To determine whether Risperidone could be effective in inhibiting growth of cancer cells overexpressing HSD10, a lysed cell LDH assay was conducted using cells from a PC3 cell line.
PC3 cells are from a cell line derived from a hormone refractory prostate cancer and are known to overexpress HSD10. […] Cells line tests were carried out in presence and absence of testosterone for comparison. After incubation in the drug treatment for 96 hours at 37° C., 5% CO2, the supernatant was removed from all wells of cells, and cells washed with 200 μL PBS.
(§1) After removal of the PBS, cell number was determined using a lysed cell LDH assay (CytoTox 96 Non-radioactive cytotoxicity assay (LDH Assay); Promega, Co., Madison Wis.). Cells were lysed with 0.9% Triton-X in PBS for 2 hours at 37° C., 5% CO2 and 50 μL of this cell lysate was transferred to a fresh 96 well plate. About 50 μL of CytoTox 96 assay reagent was added to the transferred cell lysate and this mixture was incubated at room temperature in the dark for 20 minutes. After the addition of 50 μL stop reagent, the optical absorbance was determined for each incubated mixture at 492 nm. […] The mean and standard error was calculated from at least 3 wells.
To determine the optimal concentration of Risperidone and CLA necessary to inhibit cell growth, a lysed cell LDH assay was conducted using various concentration of Risperidone and CLA. PC3 cells were cultured and a lysed cell LDH assay was conducted as described above, except that the various drug treatments evaluated contained either 0 μM, 12.5 μM, 25 μM, or 50 μM Risperidone in combination with 0 μM, 6.25 μM, 12.5 μM, 25 μM, 50 μM, or 100 μM CLA (see Table 3).
as §1, with “PBS from the cell cultures described above,” for “PBS,”, “assay.” for “assay (CytoTox 96 Non-radioactive cytotoxicity assay (LDH Assay); Promega, Co., Madison Wis.).”

Which results are given for `CCCCCC/C=C/C=C\CCCCCCCC(=O)O` [CLA, 9Z, 11E conjugated Linoleic acid]?
body weight throughout the study ([1]; by Day 40): maintained a constant weight; animal loss ([1]; by day 34): about 10%; Tumor Growth Inhibition ([1]; calculated on Day 34, dosing per Table 7, listed as Rumenic Acid): 21%; Animal Survival (overall survivorship) ([1]; day 40, dosing per Table 7, listed as Rumenic Acid): 45%; Percentage of Lysed Cells ([2]; 0 μM Risperidone, 6.25 μM CLA (Table 4)): 96 ± 0.7%; Percentage of Lysed Cells ([2]; 0 μM Risperidone, 12.5 μM CLA (Table 4)): 90 ± 2.7%; Percentage of Lysed Cells ([2]; 0 μM Risperidone, 25 μM CLA (Table 4)): 112 ± 9.5%; Percentage of Lysed Cells ([2]; 0 μM Risperidone, 50 μM CLA (Table 4)): 103 ± 9.3%; Percentage of Lysed Cells ([2]; 0 μM Risperidone, 100 μM CLA (Table 4)): 66 ± 11.8%; Percentage of Lysed Cells ([2]; 12.5 μM of each drug, 96 hours, 100% = no drug treatment (Table 3)): 109 ± 0.56%; Percentage of Lysed Cells ([2]; 25 μM of each drug, 96 hours, 100% = no drug treatment (Table 3)): 112 ± 1.1%; growth inhibition of PC3 cells ([2]; 50 μM): no effect alone; Percentage of Lysed Cells ([2]; 50 μM of each drug, 96 hours, 100% = no drug treatment (Table 3)): 107 ± 2.4%; Percentage of Lysed Cells ([2]; PC3, 50 μM Risperidone and/or 50 μM CLA, 1 μM Testosterone (T) where added, 96 hours (Table 5)): 107 ± 2.4%
